# What was measured:
# Assay type in all cases: in vivo
# [1] = tested on: CHENOPODIUM ALBUM, L.; test: Preemergence herbicidal evaluation, CHEAL (Lambsquarters, Common); conditions: for CHEAL herbicidal rating: rated four to five weeks after treatment; for CHEAL rating: four to five weeks after treatment
# Outline: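 Injury scored visually (0–9; stand, vigor, malformation, size, chlorosis) versus untreated control, four to five weeks post-treatment. Application: aqueous acetone spray onto freshly planted soil cups, equivalent to about 0.125 to 0.50 kg/ha, plants then kept under standard greenhouse care.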
# [2] = tested on: TRITICUM AESTIVUM, CV. APOLLO; test: Preemergence herbicidal evaluation, TRZAWO (Wheat, Winter, CV. APOLLO); conditions: rated four to five weeks after treatment
# From the text: (§1) Results of herbicide evaluation are expressed on a rating scale (0-9). The scale is based upon a visual observation of plant stand, vigor, malformation, size, chlorosis and overall plant appearance as compared with a control.
# (§2) The preemergence herbicidal activity of the test compounds of the present invention is exemplified by the following tests in which the seeds of a variety of monocotyledonous and dicotyledonous plants are separately mixed with potting soil and planted on top of approximately one inch of soil in separate pint cups. […] The treated cups are then placed on greenhouse benches, watered and cared for in accordance with conventional greenhouse procedures. From four to five weeks after treatment, the tests are terminated and each cup is examined and rated according to the rating system provided in Example 40.
# (§3) The compounds evaluated are reported by compound number given in Example 40.
# [3] = tested on: ECHINOCHLOA ORYZOIDES (ARD.)FRITSCH; test: Preemergence weed control under flooded paddy conditions, ECHORC (Watergrass (Calif.)); conditions: for Herbicidal effect rating, ECHORC: preemergence, 3-4 weeks after treatment; for ECHORC herbicidal rating: preemergence weeds, rated three to four weeks after treatment
# Outline: (§4)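 In undrained pots of silt loam flooded to 1.5-3 cm, compounds are pipetted into the water before emergence at the equivalent of about 0.5, 0.25, 0.125 and 0.063 kg/ha. Plants are scored 0-9 for stand, vigor, malformation, size and chlorosis at test end (3-4 weeks).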
# [4] = tested on: ORYZA SATIVA, L. TEBONNET; test: Rice tolerance to post-transplant applications under flooded paddy conditions, ORYSAT (Rice, Tebonnet); conditions: post-transplant rice; for Herbicidal effect rating, ORYSAT: 3-4 weeks after treatment; for ORYSAT herbicidal rating (rice tolerance): rated three to four weeks after treatment;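 for ORYSAT herbicidal rating (rice tolerance): applied to flooded soil surface three days after transplanting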
# Outline: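 Greenhouse pots of silt loam, each with two transplanted ten-day-old seedlings, are held under 1.5 to 3 cm of standing water. Three days later the compound is applied to the flooded surface at about 0.5, 0.25, 0.125 or 0.063 kg/ha. Damage is scored visually 0-9 after 3-4 weeks.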
# [5] = tested on: SETARIA VIRIDIS, (L) BEAU; test: Postemergence herbicidal evaluation, SETVI (Foxtail, Green); design: key to SETVI rating / Herbicidal effect rating, SETVI / SETVI: 0-9 visual rating scale vs untreated control
# Outline: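 Application to seedlings around two weeks old: test compound in 50/50 acetone/water, 0.5% TWEEN 20, sprayed at 40 psi for roughly 0.125–0.500 kg/ha. Evaluation: 0–9 visual scale after 4–5 weeks, replicates averaged.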
# [6] = tested on: CASSIA OBTUSIFOLIA, L.; test: Preemergence herbicidal evaluation, CASOB (Sicklepod); conditions: rated four to five weeks after treatment
# From the text: as §1, §2, §3
# [7] = tested on: IPOMOEA SPP.; test: Preemergence herbicidal evaluation, IPOSS (Morningglory spp.); conditions: rated four to five weeks after treatment
# From the text: as §1, §2, §3
# [8] = tested on: ECHINOCHLOA CRUS-GALLI, (L) BEAU; test: Preemergence herbicidal evaluation, ECHCG (Barnyardgrass); conditions: rated four to five weeks after treatment
# From the text: as §1, §2, §3
# [9] = tested on: GLYCINE MAX(L) MERR. CV. WILLIAMS; test: Preemergence herbicidal evaluation, GLXMAW (Soybean, Williams); conditions: rated four to five weeks after treatment
# From the text: as §1, §2, §3
# [10] = tested on: ZEA MAYS L.; test: Preemergence herbicidal evaluation, ZEAMX (Corn, Field); conditions: rated four to five weeks after treatment
# From the text: as §1, §2, §3
# [11] = tested on: CYPERUS SEROTINUS, ROTTB.; test: Preemergence weed control under flooded paddy conditions, CYPSE (Flatsedge); conditions: preemergence, 3-4 weeks after treatment
# Outline: as §4
# [12] = tested on: […], PRESL.; test: Preemergence weed control under flooded paddy conditions, MOOVA (Monochoria); conditions: for Herbicidal effect rating, MOOVA: preemergence, 3-4 weeks after treatment; for MOOVA herbicidal rating: preemergence weeds, rated three to four weeks after treatment
# Outline: as §4
# [13] = tested on: SAGITTARIA PYGMAEA, L.; test: Preemergence weed control under flooded paddy conditions, SAGPY (Arrowhead (Pygmaea)); conditions: preemergence, 3-4 weeks after treatment
# Outline: as §4
# [14] = tested on: ABUTILON THEOPHRASTI, MEDIC.; test: Postemergence herbicidal evaluation, ABUTH (Velvetleaf); conditions: rated four to five weeks after treatment, averaged
# Outline: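 This postemergence herbicide test used two-week-old velvetleaf seedlings grown in jiffy flats. Each compound was sprayed at 40 psi as a dispersion in 50/50 acetone/water with 0.5% TWEEN®20 surfactant. Plants then received routine greenhouse care. After four to five weeks, injury was scored visually on a 0-9 scale against a control, and replicate tests were averaged.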
# [15] = tested on: CHENOPODIUM ALBUM, L.; test: Postemergence herbicidal evaluation, CHEAL (Lambsquarters, Common); conditions: rated four to five weeks after treatment, averaged
# Outline: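 Postemergence herbicidal activity on Chenopodium album was tested by spraying two-week-old seedlings grown in jiffy flats with compound in acetone/water (50/50) plus 0.5% TWEEN®20, using a 40 psi nozzle. Four to five weeks after treatment, stand, vigor, malformation, size, chlorosis and overall appearance were scored 0-9 relative to controls, with repeat tests averaged.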
# [16] = tested on: AMBROSIA ARTEMISIIFOLIA, L.; test: Preemergence herbicidal evaluation, AMBEL (Ragweed, Common); conditions: four to five weeks after treatment
# From the text: as §1, §2, §3
# [17] = tested on: CYPERUS IRIA; test: Preemergence weed control under flooded paddy conditions, CYPIR (Rice Flatsedge); conditions: preemergence weeds, rated three to four weeks after treatment
# Outline: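 This preemergence test mimicked flooded paddy conditions: rice flatsedge propagules were sown in the upper 0.5 cm of silt loam in undrained 32 oz. containers (10.5 cm diameter), with water held 1.5 to 3 cm over the soil. After normal greenhouse care, plants were scored 0-9 for stand, vigor, malformation, size, chlorosis and appearance relative to controls.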
smiles,measurement,setting,value
"COC(=O)Cn1c(=O)n(C)c(=O)n(-c2cc(Oc3ccc(Cl)cc3Cl)ccc2Br)c1=O [Compound 43, Methyl 3-[2-bromo-5-(2,4-dichlorophenoxy)-phenyl]tetrahydro-5-methyl-2,4,6-trioxo-s-triazine-1(2H)-acetate]",CHEAL herbicidal rating,[1]; Rate 0.125 kg/ha,9.0
same,CHEAL herbicidal rating,[1]; Rate 0.250 kg/ha,9.0
same,CHEAL herbicidal rating,[1]; Rate 0.500 kg/ha,9.0
same,TRZAWO herbicidal rating,[2]; Rate 0.125 kg/ha,0.5
same,TRZAWO herbicidal rating,[2]; Rate 0.250 kg/ha,0.5
same,TRZAWO herbicidal rating,[2]; Rate 0.500 kg/ha,0.5
same,"Herbicidal effect rating, ECHORC",[3]; 0.063 kg/ha,9.0
same,"Herbicidal effect rating, ECHORC",[3]; 0.125 kg/ha,9.0
same,"Herbicidal effect rating, ECHORC",[3]; 0.250 kg/ha,9.0
same,"Herbicidal effect rating, ECHORC",[3]; 0.500 kg/ha,9.0
same,"Herbicidal effect rating, ORYSAT",[4]; 0.063 kg/ha,2.0
same,"Herbicidal effect rating, ORYSAT",[4]; 0.125 kg/ha,3.0
same,"Herbicidal effect rating, ORYSAT",[4]; 0.250 kg/ha,4.0
same,"Herbicidal effect rating, ORYSAT",[4]; 0.500 kg/ha,4.0
Cn1c(=O)n(CC(N)=O)c(=O)n(-c2cc(Oc3ncc(C(F)(F)F)cc3Cl)ccc2Br)c1=O [Compound 42],SETVI rating,[5]; Rate 0.125 kg/ha,1.0
same,SETVI rating,[5]; Rate 0.250 kg/ha,1.0
same,SETVI rating,[5]; Rate 0.500 kg/ha,1.0
same,CASOB herbicidal rating,[6]; Rate 0.125 kg/ha,0.0
same,CASOB herbicidal rating,[6]; Rate 0.250 kg/ha,0.0
same,CASOB herbicidal rating,[6]; Rate 0.500 kg/ha,0.0
same,CHEAL herbicidal rating,[1]; Rate 0.125 kg/ha,9.0
same,CHEAL herbicidal rating,[1]; Rate 0.250 kg/ha,9.0
same,CHEAL herbicidal rating,[1]; Rate 0.500 kg/ha,9.0
same,IPOSS herbicidal rating,[7]; Rate 0.125 kg/ha,0.0
same,IPOSS herbicidal rating,[7]; Rate 0.250 kg/ha,0.0
same,IPOSS herbicidal rating,[7]; Rate 0.500 kg/ha,0.0
same,ECHCG herbicidal rating,[8]; Rate 0.125 kg/ha,0.0
same,ECHCG herbicidal rating,[8]; Rate 0.250 kg/ha,0.0
same,ECHCG herbicidal rating,[8]; Rate 0.500 kg/ha,0.0
same,GLXMAW herbicidal rating,[9]; Rate 0.125 kg/ha,0.0
same,GLXMAW herbicidal rating,[9]; Rate 0.250 kg/ha,0.0
same,GLXMAW herbicidal rating,[9]; Rate 0.500 kg/ha,0.0
same,ZEAMX herbicidal rating,[10]; Rate 0.125 kg/ha,0.0
same,ZEAMX herbicidal rating,[10]; Rate 0.250 kg/ha,0.0
same,ZEAMX herbicidal rating,[10]; Rate 0.500 kg/ha,0.0
same,"Herbicidal effect rating, ECHORC",[3]; 0.250 kg/ha,0.0
same,"Herbicidal effect rating, ECHORC",[3]; 0.500 kg/ha,0.0
same,"Herbicidal effect rating, CYPSE",[11]; 0.250 kg/ha,0.0
same,"Herbicidal effect rating, CYPSE",[11]; 0.500 kg/ha,0.0
same,"Herbicidal effect rating, MOOVA",[12]; 0.250 kg/ha,0.0
same,"Herbicidal effect rating, MOOVA",[12]; 0.500 kg/ha,0.0
same,"Herbicidal effect rating, SAGPY",[13]; 0.250 kg/ha,0.0
same,"Herbicidal effect rating, SAGPY",[13]; 0.500 kg/ha,0.0
same,"Herbicidal effect rating, ORYSAT",[4]; 0.250 kg/ha,1.0
same,"Herbicidal effect rating, ORYSAT",[4]; 0.500 kg/ha,2.0
"COC(=O)C(C)n1c(=O)n(C)c(=O)n(-c2cc(Oc3c(F)cc(C(F)(F)F)cc3Cl)ccc2Br)c1=O (stereo not drawn) [Compound 1, Methyl 3-{2-bromo-5-[(2-chloro-α,α,α,6-tetrafluoro-p-tolyl)oxy]phenyl}tetrahydro-α,5-dimethyl-2,4,6-trioxo-s-triazine-1(2H)-acetate]","ABUTH, herbicide rating (0-9)",[14]; Rate 0.125 kg/ha,9.0
same,"ABUTH, herbicide rating (0-9)",[14]; Rate 0.250 kg/ha,9.0
same,"ABUTH, herbicide rating (0-9)",[14]; Rate 0.500 kg/ha,9.0
same,"CHEAL, herbicide rating (0-9)",[15]; Rate 0.125 kg/ha,9.0
same,"CHEAL, herbicide rating (0-9)",[15]; Rate 0.250 kg/ha,9.0
same,"CHEAL, herbicide rating (0-9)",[15]; Rate 0.500 kg/ha,9.0
same,AMBEL rating,[16]; Rate 0.125 kg/ha,0.0
same,AMBEL rating,[16]; Rate 0.250 kg/ha,0.0
same,AMBEL rating,[16]; Rate 0.500 kg/ha,0.0
same,CHEAL rating,[1]; Rate 0.125 kg/ha,9.0
same,CHEAL rating,[1]; Rate 0.250 kg/ha,9.0
same,CHEAL rating,[1]; Rate 0.500 kg/ha,9.0
same,ECHORC herbicidal rating,[3]; Rate 0.125 kg/ha,9.0
same,ECHORC herbicidal rating,[3]; Rate 0.250 kg/ha,9.0
same,ECHORC herbicidal rating,[3]; Rate 0.500 kg/ha,9.0
same,CYPIR herbicidal rating,[17]; Rate 0.125 kg/ha,9.0
same,CYPIR herbicidal rating,[17]; Rate 0.250 kg/ha,9.0
same,CYPIR herbicidal rating,[17]; Rate 0.500 kg/ha,9.0
same,MOOVA herbicidal rating,[12]; Rate 0.125 kg/ha,9.0
same,MOOVA herbicidal rating,[12]; Rate 0.250 kg/ha,9.0
same,MOOVA herbicidal rating,[12]; Rate 0.500 kg/ha,9.0
same,ORYSAT herbicidal rating (rice tolerance),[4]; Rate 0.125 kg/ha,1.0
same,ORYSAT herbicidal rating (rice tolerance),[4]; Rate 0.250 kg/ha,2.0
same,ORYSAT herbicidal rating (rice tolerance),[4]; Rate 0.500 kg/ha,3.0
